Source: US6569888B1, “Anti-inflammatory indole derivatives” (AstraZeneca AB, priority 1999, dated 2003)
Read-outs that look alike come from different tables or passages of the source. Values belong to the compound of their own block, whether it stands above or below them.

Key:
[1] = tested on: THP-1 cells; assay: hMCP-1 mediated chemotaxis; type: cell-based, human
Method: (§1) In vitro chemotaxis assays were performed using the human monocytic cell line THP-1. Cell migration through polycarbonate membranes was measured by enumerating those passing through either directly by Coulter counting or indirectly by use of a colourimetric viability assay measuring the cleavage of a tetrazolium salt by the mitochondrial respiratory chain (Scudiero D. A. et al. 1988, Cancer Res., 48, 4827-4833).
(§2) Chemoattractants were introduced into a 96-well microtitre plate which forms the lower well of a chemotaxis chamber fitted with a PVP-free 5 μm poresize polycarbonate adhesive framed filter membrane (NeuroProbe MB series, Cabin John, Md. 20818, USA) according to the manufacturer's instructions. […] The plate was incubated at 37° C. for 3 h and the absorbance of the soluble formazan product was read on a microtitre plate reader at 450 nm. The data was input into a spreadsheet, corrected for any random migration in the absence of chemoattractant and the average absorbance values, standard error of the mean, and significance tests were calculated. hMCP-1 induced concentration dependent cell migration with a characteristic biphasic response, maximal […]. […]

[2] = tested on: THP-1 cells; assay: RANTES mediated chemotaxis; type: cell-based; settings: Homo sapiens, RANTES 2 nM, Calcein AM tagged cells
Method: as §1, §2

[3] = tested on: THP-1 cells; assay: MCP-1 mediated calcium flux in THP-1 cells; type: cell-based, human; settings: stimulation of THP-1 cells with hMCP-1, FURA-2; read-out: EC50 of rise in [Ca2+]i
Method: The human monocytic cell line THP-1 was grown in a synthetic cell culture medium RPMI 1640 supplemented with 10% foetal calf serum, 6 mM glutamine and Penicillin-Streptomycin (at 50 μg streptomycin/ml, Gibco BRL). THP-1 cells were washed in HBSS (lacking Ca^2+ and Mg^2+)+1 mg/ml BSA and resuspended in the same buffer at a density of 3×10^6 cells/ml. The cells were then loaded with […] FURA-2/AM for 30 min at 37° C., washed twice in HBSS, and resuspended at 1×10^6 cells/ml. THP-1 cell suspension (0.9 ml) was added to a 5 ml disposable cuvette containing a magnetic stirrer bar and 2.1 ml of prewarmed (37° C.) HBSS containing 1 mg/ml BSA. 1 mM MgCl2 and 2 mM CaCl2. The cuvette was placed in a fluorescence spectrophotometer (Perkin Elmer, Norwalk, Conn.) and preincubated for 4 min at 37° C. with stirring. Fluorescence was recorded over 70 sec and cells were stimulated by addition of hMCP-1 to the cuvette after 10 sec. [Ca^2+]i was measured by excitation at 340 nm and 380 nm alternately and subsequent measurement of the intensity of the fluorescence emission at 510 nm.
where the Kd for FURA-2 Ca^2+ complex at 37° C. was taken to be 224 nm. […]

[4] = biological target: T1, MCP-1 receptor B (CCR2B) (Homo sapiens, UniProt P41597); assay: hMCP-1 receptor binding assay (125I-MCP-1, CHO-CCR2B cell membranes)
T1 construct: expressed in transfected cells; host or cells: CHO-K1 (clone 7, CHO-CCR2B), membrane fragments
T1 sequence (P41597 1-360 isoform P41597-2): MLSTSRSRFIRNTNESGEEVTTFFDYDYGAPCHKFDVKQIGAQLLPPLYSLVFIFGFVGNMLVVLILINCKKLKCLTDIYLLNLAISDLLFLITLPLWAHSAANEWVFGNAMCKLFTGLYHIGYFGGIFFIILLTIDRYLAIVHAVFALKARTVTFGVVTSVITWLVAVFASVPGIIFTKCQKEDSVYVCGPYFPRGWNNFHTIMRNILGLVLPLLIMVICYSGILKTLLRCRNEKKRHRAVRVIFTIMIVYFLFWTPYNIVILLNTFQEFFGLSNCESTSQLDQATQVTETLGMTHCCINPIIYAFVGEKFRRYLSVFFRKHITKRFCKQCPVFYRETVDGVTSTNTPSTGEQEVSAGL
Text: The MCP-1 receptor B (CCR2B) cDNA was cloned by PCR from THP-1 cell RNA using suitable oligonucleotide primers based on the published MCP-1 receptor sequences (Charo et al., 1994, Proc. Natl. Acad. Sci. USA, 91, 2752). The resulting PCR products were cloned into vector PCR-II™ (In Vitrogen, San Diego, Calif.). Error free CCR2B cDNA was subcloned as a Hind III-Not I fragment into the eukaryotic expression vector pCDNA3 (In Vitrogen) to generate pCDNA3/CC-CKR2A and pCDNA3/CCR2B respectively.
Linearised pCDNA3/CCR2B DNA was transfected into CHO-K1 cells by calcium phosphate precipitation (Wigler el al., 1979, Cell, 16, 777). Transfected cells were selected by the addition of Geneticin Sulphate (G418, Gibco BRL) at 1 mg/ml, 24 hours after the cells had been transfected. Preparation of RNA and Northern blotting were carried out as described previously (Needham et al., 1995, Prot. Express. Purific., 6, 134). CHO-K1 clone 7 (CHO-CCR2B) was identified as the highest MCP-1 receptor B expresser. […]
^125I MCP-1 was prepared using Bolton and Hunter conjugation (Bolton et al. 1973, Biochem. J., 133, 529; Amersham International plc]. Equilibrium binding assays were carried out using, the method of Ernst et al., 1994, J. Immunol., 152, 3541. Briefly, varying amounts of ^125I-labeled MCP-1 were added to 7 μg of purified CHO-CCR2B cell membranes in 100 μl of Binding Buffer. After 1 hour incubation at room temperature the binding reaction mixtures were filtered and washed 5 times through a plate washer (Brandel MLR-96T Cell Harvester) using ice cold Binding Buffer. Filter mats (Brandel GF/B) were pre-soaked for 60 minutes in 0.3% polyethylenimine prior to use. Following filtration individual filters were separated into 3.5 ml tubes (Sarstedt No. 55.484) and bound ^125I-labeled MCP-1 was determined (LKB 1277 Gammamaster). […] Non-specific binding was determined by the inclusion of a 200-fold molar excess of unlabelled MCP-1 in the reaction. […]

IC50 ([1]; Homo sapiens, 1 nM MCP-1): 12800 nM
Compound: COc1ccc2c(cc(C(=O)O)n2Cc2ccc(Cl)c(Cl)c2)c1OCC(=O)O [Compound 9, N-(3,4-Dichlorobenzyl)-5-methoxy-4-(carboxymethoxy)indole-2-carboxylic Acid]

IC50 [2]: 3640 nM
Compound: O=C(O)c1cc2c(OCCCO)cccc2n1Cc1ccc(Cl)c(Cl)c1 [Compound 15, N-(3,4-Dichlorobenzyl)-4-(3-hydroxypropoxy)indole-2-carboxylic Acid]

EC50 [3]: ~2 nM
IC50 ([4]; cold competition, 100 pM 125I-labeled MCP-1, CHO-CCR2B membrane fragments, read-out: IC50 of MCP-1 binding to CCR2B receptor): 0.11 nM
Kd ([4]; equilibrium binding, CHO-CCR2B membrane fragments): 0.12 nM
Compound: MCP-1: Human Monocyte Chemoattractant Protein-1, chemokine ligand of the CCR2 receptor
concentration of maximal cell migration (biphasic response) ([1]; hMCP-1 as chemoattractant): 0.5-1.0 nm

IC50 ([4]; competition with 100 pM labelled MCP-1, CHO-CCR2B membranes, 0.01-50 μM, duplicate eight point curves, read-out: IC50 in the hMCP-1 receptor binding assay): 2300 nM
Compound: O=C(O)COc1cccc2c1cc(C(=O)O)n2Cc1ccc(F)c(F)c1 [Compound 5, N-(3,4-Difluorobenzyl)-4-(carboxymethoxy)indole-2-carboxylic Acid]
